Measured values taken from patent US11608335B2, “Somatostatin modulators and uses thereof” (CRINETICS PHARMACEUTICALS, INC., priority 2018, dated 2023).
Like-named read-outs stand apart in the source and are kept apart here.

Columns and labels:
[1] = target: T1, human somatostatin receptor subtype 2 (Homo sapiens, UniProt P30874); test: cAMP assay for SST2R (inhibition of cAMP via human SST2 receptor); type: cell-based; settings: Table B, read-out: SST2 potency
T1 construct: expressed in transfected cells
T1 sequence (P30874 whole entry): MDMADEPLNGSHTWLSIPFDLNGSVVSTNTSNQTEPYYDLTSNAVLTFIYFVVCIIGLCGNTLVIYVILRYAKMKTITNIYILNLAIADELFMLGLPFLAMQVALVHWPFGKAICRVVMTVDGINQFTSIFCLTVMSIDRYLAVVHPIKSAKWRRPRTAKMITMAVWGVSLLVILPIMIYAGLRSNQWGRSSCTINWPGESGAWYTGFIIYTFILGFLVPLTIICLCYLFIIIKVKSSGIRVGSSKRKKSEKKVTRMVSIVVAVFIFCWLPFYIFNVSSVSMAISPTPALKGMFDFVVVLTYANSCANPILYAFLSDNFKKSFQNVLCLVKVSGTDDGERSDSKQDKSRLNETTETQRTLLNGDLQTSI
Source text: cAMP Assay Protocol for SST2R:

[2] = target: human somatostatin receptor subtype 5 (Homo sapiens, UniProt P35346); test: cAMP assay for SST5R (inhibition of cAMP via human SST5 receptor); settings: for Fold selectivity for SST5 vs SST2: SST5 over SST2, class symbols
Sequence of human somatostatin receptor subtype 5 (P35346 whole entry): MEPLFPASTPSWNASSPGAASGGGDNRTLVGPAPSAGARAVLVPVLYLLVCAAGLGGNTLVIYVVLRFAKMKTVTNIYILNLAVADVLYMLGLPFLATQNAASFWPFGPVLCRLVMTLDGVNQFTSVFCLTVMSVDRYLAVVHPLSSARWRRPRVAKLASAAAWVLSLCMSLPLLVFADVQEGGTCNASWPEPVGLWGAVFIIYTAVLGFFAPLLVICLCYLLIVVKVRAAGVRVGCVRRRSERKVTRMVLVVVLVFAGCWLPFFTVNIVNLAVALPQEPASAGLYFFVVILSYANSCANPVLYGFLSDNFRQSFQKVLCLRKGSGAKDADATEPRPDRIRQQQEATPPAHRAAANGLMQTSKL

[3] = read-out: SST5 potency, inhibition of cAMP via human SST5 receptor, Table B

Row | SMILES | EC50 [1] | EC50 [2] | Fold selectivity for SST5 vs SST2 [2] | EC50 [2, 3]
1 | Cc1ccc(-c2cncc(-c3nc4c(F)ccc(F)c4[nH]3)c2N2CC[C@H](N)C2)cc1C#N [Compound 2-49, 5-{4-[(3S)-3-aminopyrrolidin-1-yl]-5-(4,7-difluoro-1H-1,3-benzodiazol-2-yl)pyridin-3-yl}-2-methylbenzonitrile] | 100 to 1000 nM | < 10 nM | ++ (++=100 to 499) | < 10 nM
2 | Cc1ccnc2nc(-c3cncc(-c4cccc(Cl)c4)c3N3CC[C@](C)(N)C3)[nH]c12 [Compound 2-180, (3S)-1-[3-(3-chlorophenyl)-5-{7-methyl-1H-imidazo[4,5-b]pyridin-2-yl}pyridin-4-yl]-3-methylpyrrolidin-3-amine] | 10 to 100 nM | < 10 nM | ++ (++=100 to 499) | < 10 nM
3 | CC1(N)CCN(c2c(-c3ccc4cc[nH]c4c3)cncc2-c2nc3cccc(F)c3[nH]2)C1 (stereo not drawn) [Compound 2-29, 1-[3-(4-fluoro-1H-1,3-benzodiazol-2-yl)-5-(1H-indol-6-yl)pyridin-4-yl]-3-methylpyrrolidin-3-amine] | 100 to 1000 nM | < 10 nM | + (+=10 to 99) | < 10 nM
4 | Cc1cccc2c1nc(-c1cncc(-c3ccc(F)c(C#N)c3)c1N1CC[C@H](N)C1)n2C [Compound 2-132, 5-{4-[(3S)-3-aminopyrrolidin-1-yl]-5-(1,4-dimethyl-1H-1,3-benzodiazol-2-yl)pyridin-3-yl}-2-fluorobenzonitrile] | > 1000 nM | < 10 nM | +++ (+++=≥500) | < 10 nM
5 | Cc1cccc(-c2cncc(-c3nc4cccc(C)c4[nH]3)c2N2CC[C@@H](N)C2)c1 [Compound 2-199, (3R)-1-[3-(4-methyl-1H-1,3-benzodiazol-2-yl)-5-(3-methylphenyl)pyridin-4-yl]pyrrolidin-3-amine] | > 1000 nM | 100 to 1000 nM | + (+=10 to 99) | 100 to 1000 nM
6 | Cc1cc(F)cc(-c2cncc(-c3nc4cccc(C#N)c4[nH]3)c2N2CC(CN)C2)c1 [Compound 1-5, 2-{4-[3-(aminomethyl)azetidin-1-yl]-5-(3-fluoro-5-methylphenyl)pyridin-3-yl}-1H-1,3-benzodiazole-4-carbonitrile] | > 1000 nM | 10 to 100 nM | +++ (+++=≥500) | 10 to 100 nM
7 | CC1(N)CCN(c2c(-c3cc(F)cc(Cl)c3)cncc2-c2nc3cccc(F)c3[nH]2)C1 (stereo not drawn) [Compound 2-4, 1-[3-(3-chloro-5-fluorophenyl)-5-(4-fluoro-1H-1,3-benzodiazol-2-yl)pyridin-4-yl]-3-methylpyrrolidin-3-amine] | 10 to 100 nM | < 10 nM | ++ (++=100 to 499) | < 10 nM
8 | Cc1cccc2nc(-c3cncc(-c4ccnc(C#N)c4)c3N3CC[C@H](N)C3)[nH]c12 [Compound 2-128, 4-[(3S)-3-aminopyrrolidin-1-yl]-5-(4-methyl-1H-1,3-benzodiazol-2-yl)-[3,4′-bipyridine]-2′-carbonitrile] | 100 to 1000 nM | < 10 nM | +++ (+++=≥500) | < 10 nM
9 | Cc1c(F)ccc2nc(-c3cncc(-c4cc(F)cc(C#N)c4)c3N3CC[C@H](N)C3)[nH]c12 [Compound 2-86, 3-{4-[(3S)-3-aminopyrrolidin-1-yl]-5-(5-fluoro-4-methyl-1H-1,3-benzodiazol-2-yl)pyridin-3-yl}-5-fluorobenzonitrile] | 100 to 1000 nM | < 10 nM | ++ (++=100 to 499) | < 10 nM
10 | CC1(N)CCN(c2c(-c3cccc(S(C)(=O)=O)c3)cncc2-c2nc3cccc(F)c3[nH]2)C1 (stereo not drawn) [Compound 2-21, 1-[3-(4-fluoro-1H-1,3-benzodiazol-2-yl)-5-(3-methanesulfonylphenyl)pyridin-4-yl]-3-methylpyrrolidin-3-amine] | > 1000 nM | < 10 nM | +++ (+++=≥500) | < 10 nM
11 | N#Cc1cc(F)cc(-c2cncc(-c3nc4ccc(Cl)cc4[nH]3)c2N2CC[C@H](N)C2)c1 [Compound 2-198, 3-{4-[(3S)-3-aminopyrrolidin-1-yl]-5-(6-chloro-1H-1,3-benzodiazol-2-yl)pyridin-3-yl}-5-fluorobenzonitrile] | > 1000 nM | < 10 nM | ++ (++=100 to 499) | < 10 nM
12 | Cc1cccc2nc(-c3cncc(-c4cccc(C#N)c4)c3N3CC[C@H](N)C3)[nH]c12 [Compound 2-80, 3-{4-[(3S)-3-aminopyrrolidin-1-yl]-5-(4-methyl-1H-1,3-benzodiazol-2-yl)pyridin-3-yl}benzonitrile] | 100 to 1000 nM | < 10 nM | +++ (+++=≥500) | < 10 nM
13 | N#Cc1cc(F)cc(-c2cncc(-c3nc4c(F)ccc(F)c4[nH]3)c2N2CC[C@H](N)C2)c1 [Compound 2-38, 3-{4-[(3S)-3-aminopyrrolidin-1-yl]-5-(4,7-difluoro-1H-1,3-benzodiazol-2-yl)pyridin-3-yl}-5-fluorobenzonitrile] | 100 to 1000 nM | < 10 nM | +++ (+++=≥500) | < 10 nM
14 | N#Cc1cc(F)cc(-c2cncc(-c3nc4cc(F)cc(F)c4[nH]3)c2N2CC[C@H](N)C2)c1 [Compound 2-195, 3-{4-[(3S)-3-aminopyrrolidin-1-yl]-5-(4,6-difluoro-1H-1,3-benzodiazol-2-yl)pyridin-3-yl}-5-fluorobenzonitrile] | > 1000 nM |  | +++ (+++=≥500) | < 10 nM
15 | Cc1ccnc2nc(-c3cncc(-c4cccc(C#N)c4)c3N3CCC(C)(N)C3)[nH]c12 (stereo not drawn) [Compound 2-122, 3-[4-(3-amino-3-methylpyrrolidin-1-yl)-5-{7-methyl-1H-imidazo[4,5-b]pyridin-2-yl}pyridin-3-yl]benzonitrile] | 100 to 1000 nM | < 10 nM | ++ (++=100 to 499) | < 10 nM
16 | C[C@]1(N)CCN(c2c(-c3ccnc(C#N)c3)cncc2-c2nc3cccc(C(F)(F)F)c3[nH]2)C1 [Compound 2-175, 4-[(3S)-3-amino-3-methylpyrrolidin-1-yl]-5-[7-(trifluoromethyl)-1H-1,3-benzodiazol-2-yl]-[3,4′-bipyridine]-2′-carbonitrile] | 100 to 1000 nM | < 10 nM | +++ (+++=≥500) | < 10 nM

More lines, now with the values ahead:

Row | EC50 [1] | EC50 [2] | Fold selectivity for SST5 vs SST2 [2] | EC50 [2, 3] | SMILES
17 | 10 to 100 nM | < 10 nM | ++ (++=100 to 499) | < 10 nM | CC1(N)CCN(c2c(-c3cccc(Cl)c3)cncc2-c2nc3cccc(F)c3[nH]2)C1 (stereo not drawn) [Compound 2-28, 1-[3-(3-chlorophenyl)-5-(4-fluoro-1H-1,3-benzodiazol-2-yl)pyridin-4-yl]-3-methylpyrrolidin-3-amine]
18 | > 1000 nM | < 10 nM | +++ (+++=≥500) | < 10 nM | CCn1c(-c2cncc(-c3ccc(F)c(C#N)c3)c2N2CC[C@H](N)C2)nc2c(F)cccc21 [Compound 2-142, 5-{4-[(3S)-3-aminopyrrolidin-1-yl]-5-(1-ethyl-4-fluoro-1H-1,3-benzodiazol-2-yl)pyridin-3-yl}-2-fluorobenzonitrile]
19 | 100 to 1000 nM | < 10 nM | ++ (++=100 to 499) | < 10 nM | Cc1cccc(-c2cncc(-c3nc4cccc(C)c4[nH]3)c2N2CC[C@H](N)C2)c1 [Compound 2-146, (3S)-1-[3-(4-methyl-1H-1,3-benzodiazol-2-yl)-5-(3-methylphenyl)pyridin-4-yl]pyrrolidin-3-amine]
20 | 100 to 1000 nM | < 10 nM | ++ (++=100 to 499) | < 10 nM | Cc1cc(F)cc(-c2cncc(-c3nc4cccc(Cl)c4[nH]3)c2N2CC(CN)C2)c1 [Compound 1-3, 1-{1-[3-(4-chloro-1H-1,3-benzodiazol-2-yl)-5-(3-fluoro-5-methylphenyl)pyridin-4-yl]azetidin-3-yl}methanamine]
21 | > 1000 nM | < 10 nM | +++ (+++=≥500) | < 10 nM | Cc1cc(F)cc(-c2cncc(-c3nc4c(F)cc(F)cc4[nH]3)c2N2CC(CN)C2)c1 [Compound 1-7, 1-{1-[3-(4,6-difluoro-1H-1,3-benzodiazol-2-yl)-5-(3-fluoro-5-methylphenyl)pyridin-4-yl]azetidin-3-yl}methanamine]
22 | > 1000 nM | < 10 nM | +++ (+++=≥500) | < 10 nM | NCC1CN(c2c(-c3cc(F)cc(Cl)c3)cncc2-c2nc3cc(F)cc(F)c3[nH]2)C1 [Compound 1-39, 1-{1-[3-(3-chloro-5-fluorophenyl)-5-(4,6-difluoro-1H-1,3-benzodiazol-2-yl)pyridin-4-yl]azetidin-3-yl}methanamine]
23 | 100 to 1000 nM | < 10 nM | +++ (+++=≥500) | < 10 nM | CC1(N)CCN(c2c(-c3cccc(OC(F)(F)F)c3)cncc2-c2nc3cccc(F)c3[nH]2)C1 (stereo not drawn) [Compound 2-10, 1-[3-(4-fluoro-1H-1,3-benzodiazol-2-yl)-5-[3-(trifluoromethoxy)phenyl]pyridin-4-yl]-3-methylpyrrolidin-3-amine]
24 | 100 to 1000 nM | < 10 nM | +++ (+++=≥500) | < 10 nM | CC1(N)CCN(c2c(-c3cccc(C#N)c3)cncc2-c2nc3cccc(F)c3[nH]2)C1 (stereo not drawn) [Compound 2-13, 3-[4-(3-amino-3-methylpyrrolidin-1-yl)-5-(4-fluoro-1H-1,3-benzodiazol-2-yl)pyridin-3-yl]benzonitrile]
25 | 100 to 1000 nM | < 10 nM | +++ (+++=≥500) | < 10 nM | Cn1c(-c2cncc(-c3cccc(C#N)c3)c2N2CC[C@H](N)C2)nc2cccc(Cl)c21 [Compound 2-76, 3-{4-[(3S)-3-aminopyrrolidin-1-yl]-5-(7-chloro-1-methyl-1H-1,3-benzodiazol-2-yl)pyridin-3-yl}benzonitrile]
